In EP3623369A1, “NOVEL MORPHOLINYL AMINE COMPOUNDS FOR THE TREATMENT OF AUTOIMMUNE DISEASE” (F. Hoffmann-La Roche AG, priority 2018, dated 2020):

Target: T1, human TLR8 (Homo sapiens, UniProt Q9NR97)
T1 sequence (Q9NR97 27-1041): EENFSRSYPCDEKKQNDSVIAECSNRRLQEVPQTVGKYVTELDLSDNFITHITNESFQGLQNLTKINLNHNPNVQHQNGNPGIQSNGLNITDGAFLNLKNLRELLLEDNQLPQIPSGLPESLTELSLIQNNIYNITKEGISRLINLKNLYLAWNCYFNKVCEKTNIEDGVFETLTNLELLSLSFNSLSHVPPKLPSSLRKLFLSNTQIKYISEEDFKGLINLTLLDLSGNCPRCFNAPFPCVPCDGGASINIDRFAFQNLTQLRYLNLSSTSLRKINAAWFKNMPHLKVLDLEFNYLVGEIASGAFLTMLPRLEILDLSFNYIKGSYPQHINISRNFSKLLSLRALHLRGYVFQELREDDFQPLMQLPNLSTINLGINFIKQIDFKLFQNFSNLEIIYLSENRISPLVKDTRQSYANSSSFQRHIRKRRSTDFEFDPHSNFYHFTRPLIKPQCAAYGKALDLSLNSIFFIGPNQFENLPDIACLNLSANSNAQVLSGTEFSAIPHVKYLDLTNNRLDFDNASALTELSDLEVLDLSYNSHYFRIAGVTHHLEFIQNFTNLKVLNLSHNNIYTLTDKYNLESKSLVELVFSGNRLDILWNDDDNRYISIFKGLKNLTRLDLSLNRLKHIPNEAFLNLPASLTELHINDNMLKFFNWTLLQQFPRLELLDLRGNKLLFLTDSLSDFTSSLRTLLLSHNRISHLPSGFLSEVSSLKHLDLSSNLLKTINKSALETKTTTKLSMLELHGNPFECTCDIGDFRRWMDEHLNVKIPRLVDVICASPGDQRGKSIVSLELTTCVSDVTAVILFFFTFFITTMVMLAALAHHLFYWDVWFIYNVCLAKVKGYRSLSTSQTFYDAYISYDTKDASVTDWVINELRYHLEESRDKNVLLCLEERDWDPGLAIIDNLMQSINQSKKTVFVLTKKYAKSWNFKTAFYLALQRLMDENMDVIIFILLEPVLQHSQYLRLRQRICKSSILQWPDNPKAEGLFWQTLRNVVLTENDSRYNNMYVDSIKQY
Experiment: HEK293-Blue-hTLR-8 cells assay (SEAP reporter, R848 stimulation)
Assay type: cell-based
Details: HEK293-Blue-hTLR8 cells, R848, 20 hrs; 0.003 is the lowest tested concentration; read-out: HEK/hTLR8 IC50
Experimental: The following tests were carried out in order to determine the activity of the compounds of formula (I) or (Ia) in HEK293-Blue-hTLR-7/8/9 cells assay.
HEK293-Blue-hTLR-8 cells assay:
A stable HEK293-Blue-hTLR-8 cell line was purchased from InvivoGen (Cat.#: hkb-htlr8, San Diego, California, USA). These cells were originally designed for studying the stimulation of human TLR8 by monitoring the activation of NF-κB. A SEAP (secreted embryonic alkaline phosphatase) reporter gene was placed under the control of the IFN-β minimal promoter fused to five NF-κB and AP-1-binding sites. The SEAP was induced by activating NF-κB and AP-1 via stimulating HEK-Blue hTLR8 cells with TLR8 ligands. Therefore the reporter expression was declined by TLR8 antagonist under the stimulation of a ligand, such as R848, for incubation of 20 hrs. The cell culture supernatant SEAP reporter activity was determined using QUANTI-Blue™ kit (Cat.#: rep-qb1, Invivogen, San Diego, Ca, USA) at a wavelength of 640 nm, a detection medium that turns purple or blue in the presence of alkaline phosphatase.
HEK293-Blue-hTLR8 cells were incubated at a density of 250,000∼450,000 cells/mL in a volume of 170 µL in a 96-well plate in Dulbecco's Modified Eagle's medium (DMEM) containing 4.5 g/L glucose, 50 U/mL penicillin, […], […], 2 mM L-glutamine, 10% (v/v) heat-inactivated fetal bovine serum with addition of 20 µL test compound in a serial dilution in the presence of final DMSO at 1% and 10 µL of 60uM R848 in above DMEM, perform incubation under 37 °C in a CO2 incubator for 20 hrs. Then 20 µL of the supernatant from each well was incubated with 180 µL Quanti-blue substrate solution at 37°C for 2 hrs and the absorbance was read at 620∼655 nm using a spectrophotometer. The signalling pathway that TLR8 activation leads to downstream NF-κB activation has been widely accepted, and therefore similar reporter assay was modified for evaluating TLR8 antagonist.

Compound	IC50
C[C@@H]1CN(c2ccc(C#N)c3ncccc23)C[C@H](CN2Cc3ccc(N4CC5COCC(C4)N5)cc3C2)O1 [Example 72, 5-[(2R,6S)-2-methyl-6-[[5-(3-oxa-7,9-diazabicyclo[3.3.1]nonan-7-yl)isoindolin-2-yl]methyl]morpholin-4-yl]quinoline-8-carbonitrile]	9 nM
C[C@@H]1CN(c2ccc(C#N)c3ncccc23)C[C@H](CN2Cc3ccc(N4C5CNCC4COC5)cc3C2)O1 [Example 46, 5-[(2R,6S)-2-methyl-6-[[5-(3-oxa-7,9-diazabicyclo[3.3.1]nonan-9-yl)isoindolin-2-yl]methyl]morpholin-4-yl]quinoline-8-carbonitrile]	19 nM
C[C@@H]1CN(c2ccc(C#N)c3ncccc23)C[C@H](CN2Cc3ccc(N4CCNCC4)cc3C2)O1 [Example 21, 5-[(2R,6S)-2-methyl-6-[(5-piperazin-1-ylisoindolin-2-yl)methyl]morpholin-4-yl]quinoline-8-carbonitrile]	5 nM
C[C@@H]1CN(c2ccc(C#N)c3ncsc23)C[C@H](CN2Cc3ccc(N4CCNCC4)cc3C2)O1 [Example 23, 7-[(2R,6S)-2-methyl-6-[(5-piperazin-1-ylisoindolin-2-yl)methyl]morpholin-4-yl]-1,3-benzothiazole-4-carbonitrile]	< 3 nM
C[C@@H]1CN(c2ccc(C#N)n3nccc23)C[C@H](CN2CCc3cc(N4CCN(C)CC4)ccc3C2)O1 [Example 15, 4-[(2R,6S)-2-methyl-6-[[6-(4-methylpiperazin-1-yl)-3,4-dihydro-1H-isoquinolin-2-yl]methyl]morpholin-4-yl]pyrazolo[1,5-a]pyridine-7-carbonitrile]	21 nM
5-[(2S,6R)-2-[[5-[3-(hydroxymethyl)piperazin-1-yl]isoindolin-2-yl]methyl]-6-methyl-morpholin-4-yl]quinoline-8-carbonitrile [Example 85]	17 nM
C[C@@H]1CN(c2ccc(C#N)c3nccnc23)C[C@H](CN2CCc3cc(N4CCNCC4)ccc3C2)O1 [Example 13, 8-[(2R,6S)-2-methyl-6-[(6-piperazin-1-yl-3,4-dihydro-1H-isoquinolin-2-yl)methyl]morpholin-4-yl]quinoxaline-5-carbonitrile]	< 3 nM
C[C@@H]1CN(c2ccc(C#N)n3nccc23)C[C@H](CN2CCc3ccc(N4CCNCC4)cc3C2)O1 [Example 11, 4-[(2R,6S)-2-methyl-6-[(7-piperazin-1-yl-3,4-dihydro-1H-isoquinolin-2-yl)methyl]morpholin-4-yl]pyrazolo[1,5-a]pyridine-7-carbonitrile]	229 nM
C[C@@H]1CN(c2ccc(C#N)c3ncccc23)C[C@H](CN2Cc3cc(N4CCNCC4)cnc3C2)O1 [Example 20, 5-[(2R,6S)-2-methyl-6-[(3-piperazin-1-yl-5,7-dihydropyrrolo[3,4-b]pyridin-6-yl)methyl]morpholin-4-yl]quinoline-8-carbonitrile]	4 nM
C[C@@H]1CN(c2ccc(C#N)n3nccc23)C[C@H](CN2Cc3ccc(C4CCNCC4)cc3C2)O1 [Example 8, 4-[(2R,6S)-2-methyl-6-[[5-(4-piperidyl)isoindolin-2-yl]methyl]morpholin-4-yl]pyrazolo[1,5-a]pyridine-7-carbonitrile]	79 nM

Further lines, results first:

IC50	Compound
6 nM	C[C@@H]1CN(c2ccc(C#N)c3ncccc23)C[C@H](CN2Cc3ccc(N4CCN[C@@H](C)C4)cc3C2)O1 [Example 64, 5-[(2R,6S)-2-methyl-6-[[5-[(3S)-3-methylpiperazin-1-yl]isoindolin-2-yl]methyl]morpholin-4-yl]quinoline-8-carbonitrile]
< 3 nM	C[C@@H]1CN(c2ccc(C#N)c3ncccc23)C[C@H](CN2CCc3cc(N4CCNCC4)ncc3C2)O1 [Example 70, 5-[(2R,6S)-2-methyl-6-[(6-piperazin-1-yl-3,4-dihydro-1H-2,7-naphthyridin-2-yl)methyl]morpholin-4-yl]quinoline-8-carbonitrile]
9 nM	C[C@@H]1CN(c2ccc(C#N)c3nccnc23)C[C@H](CN2Cc3ccc(N4CCN(C5CC5)CC4)cc3C2)O1 [Example 35, 8-[(2S,6R)-2-[[5-(4-cyclopropylpiperazin-1-yl)isoindolin-2-yl]methyl]-6-methyl-morpholin-4-yl]quinoxaline-5-carbonitrile]
< 3 nM	C[C@@H]1CN(c2ccc(C#N)c3ncccc23)C[C@H](CN2Cc3cc(N4CCNCC4)cc(F)c3C2)O1 [Example 59, 5-[(2S,6R)-2-[(4-fluoro-6-piperazin-1-yl-isoindolin-2-yl)methyl]-6-methyl-morpholin-4-yl]quinoline-8-carbonitrile]
< 3 nM	C[C@@H]1CN(c2ccc(C#N)c3ncccc23)C[C@H](CN2Cc3cnc(N4CCNCC4)nc3C2)O1 [Example 63, 5-[(2R,6S)-2-methyl-6-[(2-piperazin-1-yl-5,7-dihydropyrrolo[3,4-d]pyrimidin-6-yl)methyl]morpholin-4-yl]quinoline-8-carbonitrile]
< 3 nM	C[C@@H]1CN(c2ccc(C#N)c3ncccc23)C[C@H](CN2Cc3ccc(CN4CCCCC4)cc3C2)O1 [Example 74, 5-[(2R,6S)-2-methyl-6-[[5-(1-piperidylmethyl)isoindolin-2-yl]methyl]morpholin-4-yl]quinoline-8-carbonitrile]
< 3 nM	CC1CNCCN1c1ccc2c(c1)CN(C[C@H]1CN(c3ccc(C#N)c4ncccc34)C[C@@H](C)O1)C2 (stereo partly drawn) [Example 78, 5-[(2R,6S)-2-methyl-6-[[5-(2-methylpiperazin-1-yl)isoindolin-2-yl]methyl]morpholin-4-yl] quinoline-8-carbonitrile]
118 nM	C[C@@H]1CN(c2ccc(C#N)n3nccc23)C[C@H](CN2CCc3cnccc3C2)O1 [Example R1, 4-[(2S,6R)-2-(3,4-dihydro-1H-2,6-naphthyridin-2-ylmethyl)-6-methyl-morpholin-4-yl]pyrazolo[1,5-a]pyridine-7-carbonitrile, reference compound]
< 3 nM	C[C@@H]1CN(c2ccc(C#N)c3ncsc23)C[C@H](CN2Cc3cc(N4CCNCC4)cnc3C2)O1 [Example 25, 7-[(2R,6S)-2-methyl-6-[(3-piperazin-1-yl-5,7-dihydropyrrolo[3,4-b]pyridin-6-yl)methyl]morpholin-4-yl]-1,3-benzothiazole-4-carbonitrile]
4 nM	C[C@@H]1CN(c2ccc(C#N)c3ncccc23)C[C@H](CN2Cc3ccc(N4CCNCC4)cc3C(O)C2)O1 (stereo partly drawn) [Example 75, 5-[(2S,6R)-2-[(4-hydroxy-6-piperazin-1-yl-3,4-dihydro-1H-isoquinolin-2-yl)methyl]-6-methyl-morpholin-4-yl]quinoline-8-carbonitrile]
< 3 nM	CC1CN(c2ccc3c(c2)CN(C[C@H]2CN(c4ccc(C#N)c5nccnc45)C[C@@H](C)O2)C3)CCN1 (stereo partly drawn) [Example 36, 8-[(2R,6S)-2-methyl-6-[[5-(3-methylpiperazin-1-yl)isoindolin-2-yl]methyl]morpholin-4-yl]quinoxaline-5-carbonitrile]
8 nM	C[C@@H]1CN(c2ccc(C#N)c3ncccc23)C[C@H](CN2Cc3ccc(N4CC(N)C4)cc3C2)O1 [Example 77, 5-[(2S,6R)-2-[[5-(3-aminoazetidin-1-yl)isoindolin-2-yl]methyl]-6-methyl-morpholin-4-yl]quinoline-8-carbonitrile]
